What was measured:
[1] = test system: Southern Armyworm (Spodoptera eridania); test: Southern armyworm lima bean foliar spray test (B.5); type: in vivo; settings: 96 h, larvae on sprayed lima bean plants, 4 days after treatment, read-out: mortality in comparison with untreated controls
Description: B.5 Southern Armyworm (Spodoptera eridania)
The active compounds were formulated by a Tecan liquid handler in 100% cyclohexanone as a 10,000 ppm solution supplied in tubes. The 10,000 ppm solution was serially diluted in 100% cyclohexanone to make interim solutions. These served as stock solutions for which final dilutions were made by the Tecan in 50% acetone:50% water (v/v) into 5 or 10 ml glass vials. A nonionic surfactant (Kinetic®) was included in the solution at a volume of 0.01% (v/v). The vials were then inserted into an automated electrostatic sprayer equipped with an atomizing nozzle for application to plants/insects.
Lima bean plants (variety Sieva) were grown 2 plants to a pot and selected for treatment at the 1st true leaf stage. Test solutions were sprayed onto the foliage by an automated electrostatic plant sprayer equipped with an atomizing spray nozzle. The plants were dried in the sprayer fume hood and then removed from the sprayer. Each pot was placed into perforated plastic bags with a zip closure. About 10 to 11 armyworm larvae were placed into the bag and the bags zipped closed. […] Mortality and reduced feeding were assessed 4 days after treatment, compared to untreated control plants.

[2] = test system: Diamond Back Moth (Plutella xylostella); test: Diamond back moth leaf-dip test (B.1); type: in vivo; settings: cabbage leaves dipped, 3rd instar larvae, 72 hours after treatment, read-out: mortality in comparison with untreated controls
Description: B.1 Diamond Back Moth (Plutella xylostella)
The active compound was dissolved at the desired concentration in a mixture of 1:1 (vol:vol) distilled water:aceteone. Surfactant (Kinetic HV) was added at a rate of 0.01% (vol/vol). The test solution was prepared at the day of use.
Leaves of cabbage were dipped in test solution and air-dried. Treated leaves were placed in petri dishes lined with moist filter paper and inoculated with ten 3rd instar larvae. Mortality was recorded 72 hours after treatment. Feeding damages were also recorded using a scale of 0-100%.

[3] = test system: Tobacco Budworm (Heliothis virescens); test: Tobacco budworm microtiter diet test (B.7); type: in vivo; settings: 120 h, egg and larval mortality, sprayed insect diet, 5 days, read-out: mortality in comparison with untreated controls
Description: B.7 Tobacco Budworm (Heliothis virescens)
For evaluating control of tobacco budworm (Heliothis virescens) the test unit consisted of 96-well-microtiter plates containing an insect diet and 15-25 H. virescens eggs. The compounds were formulated using a solution containing 75% v/v water and 25% v/v DMSO. Different concentrations of formulated compounds were sprayed onto the insect diet at 10 μl, using a custom built micro atomizer, at two replications.
After application, microtiter plates were incubated at about 28±1° C. and about 80±5% relative humidity for 5 days. Egg and larval mortality was then visually assessed.

[4] = test system: Mediterranean Fruitfly (Ceratitis capitata); test: Mediterranean fruitfly microtiter diet test (B.3); settings: 120 h, read-out: mortality in comparison with untreated controls
[5] = test system: Vetch Aphid (Megoura viciae); test: Vetch aphid broad bean leaf disk test (B.6); type: in vivo; settings: foliar, 120 h, adult aphids on sprayed broad bean leaf disks, 5 days, read-out: mortality in comparison with untreated controls
Description: B.6 Vetch Aphid (Megoura viciae)
For evaluating control of vetch aphid (Megoura viciae) through contact or systemic means the test unit consisted of 24-well-microtiter plates containing broad bean leaf disks.
The compounds were formulated using a solution containing 75% v/v water and 25% v/v DMSO. Different concentrations of formulated compounds were sprayed onto the leaf disks at 2.5 μl, using a custom built micro atomizer, at two replications. After application, the leaf disks were air-dried and 5-8 adult aphids placed on the leaf disks inside the microtiter plate wells. The aphids were then allowed to suck on the treated leaf disks and incubated at about 23±1° C. and about 50±5% relative humidity for 5 days. Aphid mortality and fecundity was then visually assessed.

[6] = test system: Boll Weevil (Anthonomus grandis); test: Boll weevil microtiter diet test (B.8); type: in vivo; settings: 120 h, egg and larval mortality, sprayed insect diet, 5 days, read-out: mortality in comparison with untreated controls
Description: B.8 Boll Weevil (Anthonomus grandis)
For evaluating control of boll weevil (Anthonomus grandis) the test unit consisted of 96-well-microtiter plates containing an insect diet and 5-10 A. grandis eggs.
The compounds were formulated using a solution containing 75% v/v water and 25% v/v DMSO. Different concentrations of formulated compounds were sprayed onto the insect diet at 5 μl, using a custom built micro atomizer, at two replications.
After application, microtiter plates were incubated at about 25±1° C. and about 75±5% relative humidity for 5 days. Egg and larval mortality was then visually assessed.

[7] = test system: Green Peach Aphid (Myzus persicae); test: Green peach aphid artificial diet systemic test (B.2); type: in vivo; settings: 72 h, adult aphids on treated artificial diet, 3 days, read-out: mortality in comparison with untreated controls
Text: B.2 Green Peach Aphid (Myzus persicae)
For evaluating control of green peach aphid (Myzus persicae) through systemic means the test unit consisted of 96-well-microtiter plates containing liquid artificial diet under an artificial membrane.
The compounds were formulated using a solution containing 75% v/v water and 25% v/v DMSO. Different concentrations of formulated compounds were pipetted into the aphid diet, using a custom built pipetter, at two replications.
After application, 5-8 adult aphids were placed on the artificial membrane inside the microtiter plate wells. The aphids were then allowed to suck on the treated aphid diet and incubated at about 23±1° C. and about 50±5% relative humidity for 3 days. Aphid mortality and fecundity was then visually assessed.

Cc1cc(C2=NSC(c3cc(Cl)c(Cl)c(Cl)c3)(C(F)(F)F)C2)sc1C(=O)OC(C)(C)C (stereo not shown) [Compound 1-1, tert-Butyl 3-methyl-5-[5-(3,4,5-trichlorophenyl)-5-(trifluoromethyl)-4H-isothiazol-3-yl]thiophene-2-carboxylate]
≥ 75%: mortality at 300 ppm [1]

Cc1cc(C2=NSC(c3cc(Cl)c(Cl)c(Cl)c3)(C(F)(F)F)C2)sc1C(=O)NCC(F)(F)F (stereo not shown) [Compound 1-7, 3-Methyl-5-[5-(3,4,5-trichlorophenyl)-5-(trifluoromethyl)-4H-isothiazol-3-yl]-N-(2,2,2-trifluoroethyl)thiophene-2-carboxamide]
≥ 75%: mortality at 500 ppm [2] | mortality at 2500 ppm [3] | mortality at 2500 ppm [4] | mortality at 2500 ppm [5] | mortality at 2500 ppm [6]

O=C(O)c1sc(C2=NSC(c3cc(Cl)c(F)c(Cl)c3)(C(F)(F)F)C2)cc1C(F)(F)F (stereo not shown) [Compound 1-9, 5-[5-(3,5-Dichloro-4-fluoro-phenyl)-5-(trifluoromethyl)-4H-isothiazol-3-yl]-3-(trifluoromethyl)-thiophene-2-carboxylic acid]
≥ 75%: mortality at 2500 ppm [3] | mortality at 2500 ppm [6]

O=C(NCc1ncccn1)c1sc(C2=NSC(c3cc(Cl)c(F)c(Cl)c3)(C(F)(F)F)C2)cc1C(F)(F)F (stereo not shown) [Compound 1-12, 5-[5-(3,5-Dichloro-4-fluoro-phenyl)-5-(trifluoromethyl)-4H-isothiazol-3-yl]-N-(pyrimidin-2-ylmethyl)-3-(trifluoromethyl)thiophene-2-carboxamide]
≥ 75%: mortality at 2500 ppm [3] | mortality at 2500 ppm [4] | mortality at 2500 ppm [5] | mortality at 2500 ppm [7] | mortality at 2500 ppm [6]

Source: patent US10533002B2, “Thiophene- or furan-substituted isothiazoline compounds as pesticides” (BOEHRINGER INGELHEIM ANIMAL HEATLH USA INC., priority 2013, dated 2020)
